Data as given in patent publication US6841560B2, “Substituted isoquinoline derivatives and their use as anticonvulsants” (SmithKline Beecham p.l.c., priority 1997, dated 2005).

Columns and labels:
[1] = system: electrically-induced seizures in mice; assay: Maximal electroshock seizure (MEST) threshold test, mouse model; format: in vivo; details: 10 mg/kg oral, suspension in methyl cellulose, one hour post dosing
Procedure: (§1) The maximal electroshock seizure (MEST) threshold test in rodents is particularly sensitive for detecting potential anticonvulsant properties^1. In this model, anticonvulsant agents elevate the threshold to electrically-induced seizures whilst proconvulsants lower the seizure threshold.
Mice (naive male, Charles River, U.K. CD1 strain, 25-30 g) are randomly assigned to groups of 10-20 and dosed orally or intraperitoneally at a dose volume of 10 ml/kg with various doses of compound (0.3-300 mg/kg) or vehicle. Mice are then subjected at 30 or 60 min post dose to a single electroshock (0.1 sec, 50 Hz, sine wave form) administered via corneal electrodes. The mean current and standard error required to induce a tonic seizure in 50% (CC50) of the mice in a particular treatment group is determined by the ‘up and down’ method of Dixon and Mood (1948)^2. Statistical comparisons between vehicle- and drug-treated groups are made using the method of Litchfield and Wilcoxon (1949)^3.
In control animals the CC50 is usually 14-18 mA. […] If a tonic convulsion does occur, then the current is decreased, and so on until all the animals in the group have been tested.
Studies are carried out using a Hugo Sachs Electronik Constant Current Shock Generator with totally variable control of shock level from 0 to 300 mA and steps of 2 mA are usually used.

[2] = system: maximal (tonic hindlimb extension) electroshock seizures in male rats; assay: Maximal electroshock seizure (MEST) threshold test, rat model; format: in vivo; details: 2 mg/kg p.o. at 2 h, suspended in 1% methyl cellulose
Procedure: as §1
The threshold for maximal (tonic hindlimb extension) electroshock seizures in male rats (Sprague Dawley, 80-150 g, 6 weeks old) was determined by a Hugo Sachs Electronik stimulator which delivered a constant current (0.3 sec duration, from 1-300 mA in steps of 5-20 mA). The procedure is similar to that outlined above for mouse and full details are as published by Upton et al,.^4
The percentage increase or decrease in CC50 for each group compared to the control is calculated.
Drugs are suspended in 1% methyl cellulose.

| Structure (SMILES) | increase in seizure threshold [1] | increase in CC50 (seizure threshold) compared to control [2] | further results |
| --- | --- | --- | --- |
| CN1CCc2ccc(NC(=O)c3ccc(C(C)(C)C)cc3)cc2C1 [Example 5, N-(2-Methyl-1,2,3,4-tetrahydroisoquinolin-7-yl)-4-t-butylbenzamide] | 36% |  |  |
| CC(C)Oc1ccc(C(=O)Nc2ccc3c(c2)CN(C)CC3)cc1 [Example 6, N-(2-Methyl-1,2,3,4-tetrahydroisoquinolin-7-yl)-4-iso-propoxybenzamide] | 90% |  |  |
| CN1CCc2ccc(NC(=O)c3cccc(Cl)c3)cc2C1 [Example 4, N-(2-Methyl-1,2,3,4-tetrahydroisoquinolin-7-yl)-3-chlorobenzamide] | 24% |  |  |
| O=C(Nc1ccc2c(c1)CNCC2)c1ccc(Cl)s1.O=C(O)C(F)(F)F [Example 1, N-(1,2,3,4-Tetrahydroisoquinolin-7-yl)-5-chlorothiophene-2-carboxamide, monotrifluoroacetate] |  |  | melting point: 153 to 155 °C |
| CCOc1ccc(C(=O)Nc2ccc3c(c2)CN(C)CC3)cc1Br [Example 49, N-(2-Methyl-1,2,3,4-tetrahydroisoquinolin-7-yl)-3-bromo-4-ethoxybenzamide] |  | 325% |  |
| CC(C)Oc1ccc(C(=O)Nc2ccc3c(c2)CN(C)CC3)cc1Cl [Example 48, N-(2-Methyl-1,2,3,4-tetrahydroisoquinolin-7-yl)-3-chloro-4-iso-propoxybenzamide] |  | 389% |  |
| COc1ccc(C(=O)Nc2ccc3c(c2)CN(C)CC3)cc1C(F)(F)F [Example 51, N-(2-Methyl-1,2,3,4-tetrahydroisoquinolin-7-yl)-4-methoxy-3-trifluoromethylbenzamide] |  | 545% |  |
| CC(C)c1ccc(C(=O)Nc2ccc3c(c2)CN(C)CC3)cc1C#N.Cl [Example 67, N-(2-Methyl-1,2,3,4-tetrahydroisoquinolin-7-yl)-3-cyano-4-iso-propylbenzamide, hydrochloride] |  | 303% |  |
| CN1CCc2ccc(NC(=O)c3ccc(Oc4ccccc4)cc3)cc2C1 [Example 7, N-(2-Methyl-1,2,3,4-tetrahydroisoquinolin-7-yl)-4-phenoxybenzamide] | 23% |  |  |
| CN1CCc2ccc(NC(=O)c3cccc(C(=O)C(C)(C)C)c3)cc2C1.Cl |  |  | melting point: 197 to 201 °C |
